Each structure is given as a SMILES string. Values joined by “and” are separate entries in the source; they are usually repeats but may differ in a detail not shown here. Equal values may be shown once.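 All cell lines were grown in 96-well plates and treated with compound for 48 hours. The concentration for 50% growth inhibition is given as GI50. The concentration for full growth arrest is given as TGI.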

In the experiment the test system is MDA-MB-468 breast. As to the kind of experiment: NCI tumour cell line growth inhibition, 48 h.
For `N=C1N(c2ccccc2)C(=S)C(=Nc2ccccc2)N1c1ccccc1`, the GI50 was 7.14 µM and the TGI stood at 20.8 µM. As to `COc1ccc(CN2CCc3c(Sc4ccccc4)nc(N)nc3C2=O)c(OC)c1`, the GI50 is 3.51 µM and the TGI was 14 µM. On to `COc1cc(-c2cncn2-c2ccc(-c3nc4ccc(F)cc4s3)cc2)ccc1F`, for which the GI50 is 11.1 µM and the TGI was over 100 µM. For `CCNC(=O)N1CCc2cc(OC)c(OCCc3ccc(OC)nc3)cc2C1c1ccc(C)cc1C` (stereo not given), the GI50 was 1.59 µM and the TGI turned out to be 7.58 µM. Consider `CCC(CC)COC(=O)[C@H](C)N[P@](=O)(OC[C@H]1O[C@@](C#N)(c2ccc3c(N)ncnn23)[C@H](O)[C@@H]1O)Oc1ccccc1`, for which the GI50 is 0.491 µM and the TGI came to 3.83 µM. Consider `CN(CCO)C1CCN(c2ccc(Nc3ncc4c5ccnc(F)c5n(C5CCCC5)c4n3)nc2)CC1`, for which the GI50 is 15.4 µM and the TGI was found to be 33.2 µM. `C/C=C(/C(=C/C)c1ccc(O)cc1)c1ccc(O)cc1`: the GI50 was 2 µM and the TGI worked out at 6.85 µM. In the case of `NS(=O)(=O)c1ccc(Nc2ncc(-c3ccccc3)o2)cc1`, the GI50 is over 25 µM and the TGI was over 25 µM.

Turning to `COc1ccc(-c2cnoc2-c2ccc(OC)cc2O)cc1`, the GI50 is 0.844 µM and the TGI came to 5.46 µM. `CCN(CCCNC(=O)Cc1cc(=O)oc2cc(N(C)C)ccc12)CCNc1ccnc2cc(Cl)ccc12`: the GI50 was 1.96 µM and the TGI is 6 µM. On to `Cc1nnc([S-])o1.[Au+].c1ccc([PH+](c2ccccc2)c2ccccc2)cc1`, for which the GI50 is 1.38 µM and the TGI turned out to be 2.8 µM. Regarding `O=c1ccc(N=Nc2ccccc2)ccc1Cl`, the GI50 was 2.46 µM and the TGI was found to be 10.8 µM. For `CNC1CCc2c(sc(NC(=O)c3ccc(C(C)(C)C)cc3)c2C(N)=O)C1` (stereo not given), the GI50 is 1.84 µM and the TGI is 3.58 µM. In the case of `O=C(Nc1cccc(-n2cc(-c3ccncc3)c(-c3ccc(Cl)c(O)c3)n2)c1)Nc1cccc(C(F)(F)F)c1`, the GI50 is 0.98 µM and the TGI came to 7.83 µM. On to `C=C(C)[C@@H]1CC[C@]2(COC(C)=O)CC[C@]3(C)[C@H](CC[C@@H]4[C@@]5(C)CCCN(C(C)=O)C(C)(C)[C@@H]5CC[C@]43C)[C@@H]12`, for which the GI50 is 1.53 µM and the TGI amounted to 3 µM.

As for `CCCCC/C=C/C(=O)CCc1ccc(O)c(OC)c1`, the GI50 is 3.18 µM and the TGI came out at 13 µM. On to `Nc1nc2cc(-c3ccc4ncc(C(=O)N5CCOCC5)n4c3)ccc2o1`, for which the GI50 is 3.82 µM and the TGI is 45.5 µM.

For `COC(=O)c1cc2cc(-c3ccc(OC)cc3)cnc2[nH]1`, the GI50 is 0.744 µM.

For the compound `Oc1ccc(/C=C/c2ccc(O)cc2)cc1`, the GI50 was 10.7 µM and the TGI is over 100 µM. Regarding `CCOC(=O)c1ccc(NC(=O)Nc2nccs2)cc1`, the GI50 was 0.0467 µM and the TGI was over 100 µM.

`COC(=O)c1c2c(c(C)[n+]([O-])c1C)C(=O)C(NCc1cccc(Cl)c1)=CC2=O`: the GI50 is 0.896 µM and the TGI turned out to be 2.5 µM. Regarding `O=C1c2ccc3c4c(ccc(c24)C(=O)N1CCCNCc1ccccc1F)C(=O)N(CCCNCc1ccccc1F)C3=O`, the GI50 was 0.143 µM and the TGI is 0.29 µM. The matching figures for `O=NNc1ccc(S(=O)c2ccccc2)cn1` (stereo not given): 76.2 µM and over 100 µM.

In the case of `NS(=O)(=O)N(c1cc(C(F)(F)F)cc(C(F)(F)F)c1)C1CCN(Cc2ccc(C(F)(F)F)cc2)CC1`, the GI50 was 5.65 µM and the TGI stood at 12 µM. Regarding `COc1cccc(-n2ncc3c(N/N=C/c4ccc(F)cc4)ncnc32)c1`, the GI50 was over 25 µM and the TGI was over 25 µM. For `C=C1C(=O)O[C@H]2[C@H]1CC/C(COC(=O)NCc1[nH]nc3ccccc13)=C\CC[C@@]1(C)O[C@@H]21`, the GI50 is 0.736 µM and the TGI came out at 2.72 µM. Consider `CC(C)(C)CC(C)(C)c1ccc(OCCSC(=N)N)cc1`, for which the GI50 is 0.358 µM and the TGI turned out to be 1.9 µM.

Consider `Cc1ccc2c(NCCCN(C)C)c3c(C)nn(C)c3nc2c1`, for which the GI50 is 2.71 µM and the TGI was 10.2 µM. Consider `C=C1C(=O)O[C@H]2[C@H]1CC/C(COC(=O)NCc1ccc(Cn3c(=O)sn(CCI)c3=O)cc1)=C\CC[C@@]1(C)O[C@@H]21`, for which the GI50 is 1.25 µM and the TGI amounted to 2.81 µM. Regarding `CCSc1ccc2c(c1)N(CCCN1CCN(C)CC1)c1ccccc1S2`, the GI50 is 1.73 µM and the TGI was determined as 3.38 µM. Turning to `CCC(/C=C(C)/C=C/C(=O)c1c(O)c(-c2ccc(O)cc2)c[nH]c1=O)CO` (stereo not given), the GI50 was 5.24 µM and the TGI came out at 24.4 µM. On to `O=[N+]([O-])c1cc([N+](=O)[O-])c(N2CCCC2)cc1NN=C(c1ccc(O)cc1)c1ccc(O)cc1`, for which the GI50 was 2.18 µM and the TGI was 10.1 µM. On to `CN1CCN(Cc2ccc(NC(=O)c3cnc(F)c(C#Cc4cnc(N)c5ncccc45)c3)cc2C(F)(F)F)CC1`, for which the GI50 was 0.386 µM and the TGI stood at 7.68 µM. Consider `COc1ccc(-c2cc3c(OC)c(OC)c(OC)cc3oc2=O)cc1`, for which the GI50 was 2.21 µM and the TGI stood at 8.46 µM. As for `CN1CCN(Cc2ccc(NC(=O)c3cncc(C#Cc4cnc5ccc(OCC6(C)COC6)nn45)c3)cc2C(F)(F)F)CC1`, the GI50 was 0.12 µM and the TGI was found to be 0.36 µM. As to `CCCCSSC(=S)N(CC)CC`, the GI50 is 65.1 µM and the TGI is over 100 µM.

For the compound `Cc1nn(-c2ccccc2)c(-n2ccnc2)c1/C=N/Nc1nc(-c2ccc(Cl)c(Cl)c2)cs1`, the GI50 is 1.47 µM and the TGI came to 7.92 µM. As for `CSc1nn2c(-c3ccc4ccccc4c3)ccnc2c1C#N`, the GI50 was 2.87 µM and the TGI was 18.3 µM. On to `CC(C)(Oc1ccc(Cl)cc1)C(=O)NC1C2CC3CC1CC(NS(C)(=O)=O)(C3)C2` (stereo not given), for which the GI50 is over 100 µM and the TGI is over 100 µM.

In the case of `CCN(CC)CCCN1C(=O)c2c(c(C)c3c(oc4ccc(O)cc43)c2C)C1=O`, the GI50 was 1.65 µM and the TGI stood at 3.72 µM. Take `COc1cc(-c2cc(/C=C3\C(=O)Nc4ccc(Cl)cc43)[nH]n2)cc(OC)c1OC`: the GI50 was 5.23 µM and the TGI was 88.8 µM. For `Cc1ccc(NS(=O)(=O)c2ccc(-c3cnc(C4CC4)o3)cc2)cc1C`, the GI50 is 0.231 µM and the TGI was 2.33 µM. Consider `CN(C)c1ccc(O)c2c1CC1CC3C(N(C)C)C(=O)C(C(N)=O)=C(O)C3(O)C(=O)C1=C2O` (stereo not given), for which the GI50 was 11 µM and the TGI turned out to be 57.7 µM. In the same order, the values of `Nc1[nH]c(=O)nc2c1cnn2Cc1ccccc1` are over 100 µM and over 100 µM.

With `O=C(C(Br)C(Br)c1ccccc1)C(Br)C(Br)c1ccccc1` (stereo not given), the GI50 is 1.04 µM and the TGI amounted to 3.09 µM.

As for `C=CCOC1=CC(=O)c2ccccc2C1=O`, the GI50 was 2.08 µM and the TGI turned out to be 5.14 µM.

As to `CN1CCN(Cc2ccc(NC(=O)c3nc4ccc5[nH]ncc5c4c4c3CCCC4)cc2C(F)(F)F)CC1`, the GI50 was 0.797 µM and the TGI was 1.6 µM. The matching figures for `Cn1cc(C2=C(c3cn(C)c4cc(C(=O)O)ccc34)C(=O)NC2=O)c2ccccc21`: over 25 µM and over 25 µM. For the compound `CCCCN(CCCC)CC(O)c1ccc(OCc2ccccc2)c2ccccc12` (stereo not given), the GI50 is 2.17 µM and the TGI stood at 6 µM.

For the compound `COC(=O)[C@@H]1CCCN1C(=O)[C@@H]1CCCN1C(=O)[C@H](Cc1ccccc1)NC(=S)Nc1cc(C(F)(F)F)cc(C(F)(F)F)c1`, the GI50 was 2.48 µM and the TGI came out at 9.62 µM.

With `CCCCCCCCCCCCCCCCNC(=O)OC(C)C`, the GI50 is 4.01 µM and the TGI was determined as 10.1 µM. With `CO[C@@H](C(=O)N1Cc2[nH]nc(NC(=O)c3ccc(N4CCN(C)CC4)cc3)c2C1)c1ccccc1`, the GI50 was 0.585 µM and 0.13 µM; the TGI is 5.28 µM and > 10 µM.

Take `COc1ccc(/C=C2\CS(=O)(=O)C/C(=C\c3ccc(OC)cc3)C2=O)cc1`: the GI50 was 1.59 µM and the TGI was 5.18 µM.

The values are drawn from PubChem BioAssay (NCI).
